Reference: PMC6943714, “Rigorous Computational and Experimental Investigations on MDM2/MDMX-Targeted Linear and Macrocyclic Peptides” (Molecules, 2019)
pKd: −log10 of the molar value. Where a SMILES comes first, the peptide text is derived from it. Bridges are numbered along the chain shown (N, C = ends). [ ]: non-standard residue; d: D form. R8 = C=CCCCCCC[C@@](C)(N)C(=O)O; Cba = N[C@@H](CC1CCC1)C(=O)O; S5 = C=CCCC[C@](C)(N)C(=O)O

Columns and labels:
[1] = target: T1, MDMX (Homo sapiens, UniProt O15151); assay: Experimental MDMX binding (Table 4)
T1 sequence (O15151 1-490): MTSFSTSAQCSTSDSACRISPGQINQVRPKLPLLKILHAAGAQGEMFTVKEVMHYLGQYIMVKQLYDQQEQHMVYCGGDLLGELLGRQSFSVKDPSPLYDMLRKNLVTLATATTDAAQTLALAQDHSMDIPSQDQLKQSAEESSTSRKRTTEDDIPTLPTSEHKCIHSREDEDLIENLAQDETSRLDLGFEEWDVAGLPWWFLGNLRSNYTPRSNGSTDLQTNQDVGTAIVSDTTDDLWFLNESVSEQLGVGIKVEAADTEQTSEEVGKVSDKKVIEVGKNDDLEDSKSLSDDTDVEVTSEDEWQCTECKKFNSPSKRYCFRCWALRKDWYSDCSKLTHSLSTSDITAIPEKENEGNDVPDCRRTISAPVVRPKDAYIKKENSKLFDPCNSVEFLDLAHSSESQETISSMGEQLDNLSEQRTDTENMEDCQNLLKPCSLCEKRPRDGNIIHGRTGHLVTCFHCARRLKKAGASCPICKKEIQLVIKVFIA
From the text: Table 4 Prospective Testing Data. | column: Experimental MDMX / Kd (nM); Experimental MDMX / ΔΔG (kcal)

[2] = target: T2, MDM2 (1-125) (Homo sapiens, UniProt Q00987); assay: Mdm2 competitive fluorescence anisotropy assay; format: binding; details: read-out: Experimental MDM2 Kd
T2 construct: Purified MDM2 (1-125) protein was titrated against
T2 sequence (Q00987 1-125): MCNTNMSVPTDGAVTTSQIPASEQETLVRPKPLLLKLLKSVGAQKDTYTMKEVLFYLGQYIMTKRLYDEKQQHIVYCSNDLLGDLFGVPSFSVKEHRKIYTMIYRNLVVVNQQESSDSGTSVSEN
Experimental: Mdm2 Competitive Fluorescence Anisotropy Assay and Kd Determination Purified MDM2 (1-125) protein was titrated against 50 nM carboxyfluorescein (FAM)-labeled 12/1 peptide (FAM-[…]-NH2). […] (4) r=r0+(rb−r0)((Kd+[L]t+[P]t)−(Kd+[L]t+[P]t)^2−4[L]t[P]t/2[L]t)
[P] is the protein concentration (MDM2), [L] is the labeled peptide concentration, r is the anisotropy measured, ro is the anisotropy of the free peptide, rb is the anisotropy of the MDM2–FAM-labeled peptide complex, Kd is the dissociation constant, [L]t is the total FAM-labeled peptide concentration, and [P]t is the total MDM2 concentration.
Apparent Kd values were determined for a variety of molecules via competitive fluorescence anisotropy experiments. Titrations were carried out with the concentration of MDM2 held constant at 250 nM and the labeled peptide at 50 nM. The competing molecules were then titrated against the complex of the FAM-labeled peptide and protein. Apparent Kd values were determined by fitting the experimental data to the equations shown below: [58, 59]. […]
[L]st and [L]t denote labeled ligand and total unlabeled ligand input concentrations, respectively. […] Kd1 is the apparent Kd for the labeled peptide used in the respective experiment, which has been experimentally determined as described in the previous paragraph. […] Readings were carried out with an Envision Multilabel Reader (PerkinElmer). […]

| Structure (SMILES) | pKd [1] | pKd [2] |
| --- | --- | --- |
| CC(=O)N[C@@H](CC(C)C)C(=O)N[C@H](C(=O)N[C@@H](Cc1ccccc1)C(=O)N[C@]1(C)CCCCCCC=CCCC[C@@](C)(C(=O)N[C@@H](CO)C(=O)N[C@@H](C)C(=O)N[C@@H](C)C(N)=O)NC(=O)[C@H](CC2CCC2)NC(=O)[C@H](CC(C)C)NC(=O)[C@H](CCC(N)=O)NC(=O)[C@H](Cc2c[nH]c3ccccc23)NC(=O)[C@H](Cc2ccc(O)cc2)NC(=O)[C@H](CCC(=O)O)NC1=O)[C@@H](C)O [WT] | 7.90 |  |
| CC(=O)N[C@@H](CC(C)C)C(=O)N[C@H](C(=O)N[C@@H](Cc1ccccc1)C(=O)N[C@]1(C)CCCCCCC=CCCC[C@@](C)(C(=O)N[C@@H](CO)C(=O)N[C@@H](C)C(=O)N[C@@H](C)C(N)=O)NC(=O)[C@H](CC2CCC2)NC(=O)[C@H](CC(C)C)NC(=O)[C@H](CCC(N)=O)NC(=O)[C@H](Cc2c[nH]c3ccccc23)NC(=O)[C@H](C)NC(=O)[C@H](CCC(=O)O)NC1=O)[C@@H](C)O [Y6A] (Ac-LTF[R8]EAWQL[Cba][S5]SAA-NH2; staple 4-11) | 6.89 | 7.29 |
| CC(=O)N[C@@H](CC(C)C)C(=O)N[C@H](C(=O)N[C@@H](Cc1ccccc1)C(=O)N[C@]1(C)CCCCCCC=CCCC[C@@](C)(C(=O)N[C@@H](CO)C(=O)N[C@@H](C)C(=O)N[C@@H](C)C(N)=O)NC(=O)[C@H](CC2CCC2)NC(=O)[C@H](CC(C)C)NC(=O)[C@H](CCC(N)=O)NC(=O)[C@H](Cc2c[nH]c3ccccc23)NC(=O)[C@@H](Cc2ccc(O)cc2)NC(=O)[C@H](CCC(=O)O)NC1=O)[C@@H](C)O [Y6dY] | 6.04 | 6.44 |
